Source: patent US9784747B2, “Method and kit for analyzing protein-protein interaction using nanocluster formation” (KOREA ADVANCED INSTITUTE OF SCIENCE AND TECHNOLOGY, priority 2011, dated 2017)

Tested on: interaction between CaMKIIα and calmodulin
Assay: Real-time observation of calcium-dependent nanocluster formation (CaMKIIα-CaM interaction) in cotransfected HeLa cells
Assay type: cell-based
Conditions: ionomycin 1 mM; 80 seconds after treatment; HeLa cells cotransfected with mCherry-CaMKII[296-315]-AD and CaM-ECFP-FT; fluorescence distributed again as time passes
Experimental: To investigate whether the system of the present disclosure can be used for real-time observation of an intermolecular interaction regulated by calcium through a calcium dependent nanocluster formation, the present inventors cotransfected HeLa cells with the mCherry-CaMKII[296-315]-AD construct constructed in example 1-18 and the CaM-ECFP-FT construct constructed in example 1-19 through the method described above. Thereafter, the cells were treated with 1 mM of ionomycin as ionophore which facilitates calcium ion penetration.
Then, fluorescence was distributed again as time passes.

## C[C@H](CCC(=O)O)C[C@H](C)C[C@H](C)C(=O)/C=C(\O)[C@H](C)C[C@H](C)C/C=C/[C@@H](C)[C@@H](O)[C@@H](C)[C@@H](O)C[C@@H]1CC[C@@](C)([C@H]2CC[C@@](C)([C@@H](C)O)O2)O1 [ionomycin]
  distribution and intensity of fluorescence (nanocluster formation): a strong fluorescence dot appeared in cytoplasm due to a nanocluster formation
